Experimental data taken from article PMC11429909, “Protein Structure Inspired Discovery of a Novel Inducer of Anoikis in Human Melanoma” (Cancers, 2024).
“Also recorded” adds a separate entry of the source.

Tests used:
Type in all cases: cell-based, human
[1] = test system: M14; assay: Eight-day colony formation assay, melanoma M14
Experimental: (§1) In addition to screens, eight-day colony formation assays were conducted for certain experiments, as denoted. When measuring the effect of 5-fluorouracil (5FU) on HT29 colon cancer cells, the following final 5FU concentrations were examined: 0 (DMSO only), 0.0012, 0.012, 0.12, 0.82, 5.7, 20, and 40 µM. When measuring the effect of Dxr2-017 on melanoma cell growth, the following concentrations were examined: 0 (DMSO only), 0.001, 0.01, 0.1, 1.0, and 10.0 µM. Melanoma studies were performed on M14 and SK-MEL-5 human melanoma cell lines. For each Dxr2-017 concentration for each cell line, there were N = 3 replicates, and experiments were performed a total of 3 separate times (each with N = 3 replicates). The IC50 values were calculated using nonlinear regression analysis. Data from individual experiments were log-transformed and fitted to a dose–response curve using the four-parameter logistic model of GraphPad Prism 10 software. The IC50 values were determined using the dose–response inhibition function. IC50 values from each of three different experiments were used to calculate mean ± SEM.

[2] = test system: SK-MEL-5; assay: Eight-day colony formation assay, melanoma SK-MEL-5
Experimental: as §1

[3] = test system: M14 cells; assay: Cell cycle analysis by flow cytometry, M14; settings: 20 nM, eight days
Experimental: (§2) A total of 1 × 10^4 M14 cells and 1 × 10^4 SK-MEL-5 cells were seeded into 10 cm culture dishes. Twenty-four hours later, cells were treated in replicates of N = 3, with Dxr2-017 at 20 nM for M14 and 50 nM for SK-MEL-5, or vehicle for controls for a total of eight days, with replacement of media, along with Dxr2-017 or vehicle, at day five. Cells were then collected, filtered to obtain single-cell suspensions, equal numbers of cells were fixed in 1 mL of 70% ethanol at 4 °C for 1 h, washed with PBS, and resuspended in 1 mL of Telford reagent (1 mM EDTA disodium salt, 2.5 U/mL RNAse A, 75 µM Propidium Iodide, and 0.1% Triton X-100 in PBS), and then incubated at 4 °C overnight. Cells were analyzed by flow cytometry (FACSCalibur analyzer, BD Biosciences). Cells were gated on forward scatter (FSC) versus side scatter (SCC) to remove debris, followed by gating of single cells using PI (FL2)-Area versus PI (FL2)-Width. Cell cycle analysis was performed on the PI (FL2)-Area parameter, and the percentages of cells within G0/G1, S, and G2/M phases were determined using Modfit LT 4.0.5.

[4] = test system: SK-MEL-5 cells; assay: Cell cycle analysis by flow cytometry, SK-MEL-5; settings: 50 nM, eight days
Experimental: as §2

[5] = test system: SK-MEL-5 cells; assay: Adherent versus floating cell quantification from images, SK-MEL-5; settings: 20 µM, 3-day treatment, mean ± SEM (N = 4), controls 19.5 ± 3.2%
Experimental: After treatment of M14 and SK-MEL-5 cells with different concentrations of Dxr2-017 or vehicle for 3 or 8 days, as denoted, cell images were captured at 20X in a transmitted light channel using the EVOS™ M5000 Imaging System (Invitrogen (Waltham, MA, USA)). Western blots were performed as previously described by us. Briefly, cells were collected and lysed using RIPA lysis buffer (25 mM Tris-HCl pH 7.6, 150 mM NaCl, 1% NP-40, 1% sodium deoxycholate, and 0.1% SDS; Thermo Scientific^TM (Waltham, MA, USA), #89900), supplemented with protease and phosphatase inhibitor cocktail (Thermo Scientific^TM, #78442) and 1 mM of PMSF. […]
Figure 8 Dxr2-017 inhibits melanoma cell growth through induction of anoikis. […] Data are expressed as the percent of untreated control and are the mean ± SEM of three separate experiments. […] M14 and SK-MEL-5 cells were treated for eight days with 20 nM and 50 nM of Dxr2-017, respectively, and the phase of the cell cycle was determined by flow cytometry. […] (D) Adherent and floating cells were quantified from captured images. Data are the mean ± SEM (N = 4), expressed as a percentage to total cells. * Denotes p-value ≤ 0.05 compared to respective floating or attached cells. […]
We then assessed whether Dxr2-017 induced apoptosis. […]

[6] = test system: cleaved caspase 3; assay: Western blot for cleaved caspase 3, SK-MEL-5; settings: up to 20 µM, three days
Experimental: (§3) After treatment of M14 and SK-MEL-5 cells with different concentrations of Dxr2-017 or vehicle for 3 or 8 days, as denoted, cell images were captured at 20X in a transmitted light channel using the EVOS™ M5000 Imaging System (Invitrogen (Waltham, MA, USA)). Western blots were performed as previously described by us. Briefly, cells were collected and lysed using RIPA lysis buffer (25 mM Tris-HCl pH 7.6, 150 mM NaCl, 1% NP-40, 1% sodium deoxycholate, and 0.1% SDS; Thermo Scientific^TM (Waltham, MA, USA), #89900), supplemented with protease and phosphatase inhibitor cocktail (Thermo Scientific^TM, #78442) and 1 mM of PMSF. Resultant Western blots were probed using antibodies against cleaved caspase 3 (Cell Signaling Technology (Danvers, MA, USA), #9664), pan-cadherin (Cell Signaling Technology, #4068), and β-actin (Santa Cruz (Santa Cruz, CA, USA), #sc-47778).
We then assessed whether Dxr2-017 induced apoptosis. We treated M14 and SK-MEL-5 cells with Dxr2-017 for three days at concentrations of up 10 and 20 µM, respectively, and measured cleaved caspase 3 using Western blot. […] In this assay, cells were grown in six-well plates and washed prior to lysis, and thus only adherent cells remained. […] Adherent cells are spread out and fusiform shaped, while detached/floating cells are round, as previously reported by us. […]

[7] = test system: pan-cadherin; assay: Western blot for pan-cadherin, M14
Experimental: as §3
These findings led us to compare cleaved caspase 3 between adherent cells and floating cells. Cleaved caspase 3 is an indicator of programmed cell death, and its triggering by loss of cell attachment is an established means of detecting anoikis. Adherent cells were prepared as above. […]

IC50 ([1]; Homo sapiens, 192 h, M14 melanoma, mean ± SEM of three experiments): 0.012 µM
IC50 ([2]; Homo sapiens, 192 h, SK-MEL-5 melanoma, mean ± SEM of three experiments): 0.051 ± 0.011 µM
Structure (SMILES): c1ccc2sc(-c3ccc(CNc4ccc5nnnn5n4)o3)nc2c1 [Dxr2-017]
fold efficacy relative to bone marrow stem cells treated at 40 µM ([1]; M14 IC50 versus eight-day bone marrow treatment at 40 µM): over 2100 fold
fold efficacy relative to bone marrow stem cells treated at 40 µM ([2]; SK-MEL-5 IC50 versus eight-day bone marrow treatment at 40 µM): > 750 fold
effect on cell cycle parameters [3]: little-to-no change in cell cycle parameters
effect on cell cycle parameters [4]: little-to-no change in cell cycle parameters
floating cell population, percentage to total cells [5]: 60.8 ± 10.4%
cleaved caspase 3, adherent and floating cells combined [6]: clear formation was observed
cleaved caspase 3, adherent cells only [6]: did not see any induction of cleaved caspase 3; also recorded: no formation of cleaved caspase 3
cadherin expression [7]: decreased cadherin expression in a concentration-dependent manner
